Experimental data reported in ChEMBL document CHEMBL1255249, “Urine bactericidal activity against Escherichia coli isolates exhibiting different resistance phenotypes/genotypes in an in vitro pharmacodynamic model simulating urine concentrations obtained after oral administration of a 400-milligram single dose of cefditoren-pivoxil” (Antimicrob Agents Chemother, 2008).
≈ marks a conversion by molar mass, not a printed value. Calls of active or inactive are those of the source. The calls are words filed in the database; no cut-off is given here.

What was measured:
Escherichia coli [1] = experiment: Antimicrobial activity against Escherichia coli S6 expressing extended-spectrum beta-lactamase TEM-116 and SHV-12 in presence of beta-lactamase inhibitor clavulanic acid; type: functional
Escherichia coli [2] = experiment: Antimicrobial activity against Escherichia coli S2 expressing penicillinase TEM-1 in presence of beta-lactamase inhibitor clavulanic acid; type: functional
Escherichia coli [3] = experiment: Antimicrobial activity against Escherichia coli S4 expressing inhibitor-resistant TEM-34 in presence of beta-lactamase inhibitor clavulanic acid; type: functional
Escherichia coli [4] = experiment: Antimicrobial activity against Escherichia coli S5 expressing extended-spectrum beta-lactamase TEM-116; type: functional
Escherichia coli [5] = experiment: Antimicrobial activity against Escherichia coli S7 expressing extended-spectrum beta-lactamase SHV-12 and penicillinase TEM-1 in presence of beta-lactamase inhibitor clavulanic acid; type: functional
Escherichia coli [6] = experiment: Antimicrobial activity against Escherichia coli S4 expressing inhibitor-resistant TEM-34; type: functional
Escherichia coli [7] = experiment: Antimicrobial activity against Escherichia coli S7 expressing extended-spectrum beta-lactamase SHV-12 and penicillinase TEM-1; type: functional
Escherichia coli [8] = experiment: Antimicrobial activity against Escherichia coli S3 overexpressing penicillinase TEM-1; type: functional
Escherichia coli [9] = experiment: Antimicrobial activity against Escherichia coli S1 expressing penicillinase TEM-1 in presence of beta-lactamase inhibitor clavulanic acid; type: functional
Escherichia coli [10] = experiment: Antimicrobial activity against Escherichia coli S6 expressing extended-spectrum beta-lactamase TEM-116 and SHV-12; type: functional
Escherichia coli [11] = experiment: Antimicrobial activity against Escherichia coli S2 expressing penicillinase TEM-1; type: functional
Escherichia coli [12] = experiment: Antimicrobial activity against Escherichia coli S5 expressing extended-spectrum beta-lactamase TEM-116 in presence of beta-lactamase inhibitor clavulanic acid; type: functional
Escherichia coli [13] = experiment: Antimicrobial activity against Escherichia coli S3 overexpressing penicillinase TEM-1 in presence of beta-lactamase inhibitor clavulanic acid; type: functional
Escherichia coli [14] = experiment: Antimicrobial activity against Escherichia coli S1 expressing penicillinase TEM-1; type: functional
Escherichia coli [15] = experiment: Antimicrobial activity against Escherichia coli S3 overexpressing penicillinase TEM-1 assessed as log reduction in bacterial count upto 8 hrs; type: functional
Escherichia coli [16] = experiment: Antimicrobial activity against Escherichia coli S5 expressing extended-spectrum beta-lactamase TEM-116 assessed as log reduction in bacterial count upto 8 hrs; type: functional
Escherichia coli [17] = experiment: Antimicrobial activity against Escherichia coli S1 expressing penicillinase TEM-1 after 8 hrs; type: functional, organism-based
Escherichia coli [18] = experiment: Antimicrobial activity against Escherichia coli S6 expressing extended-spectrum beta-lactamase TEM-116 and SHV-12 after 24 hrs; type: functional, organism-based
Escherichia coli [19] = experiment: Antimicrobial activity against Escherichia coli S5 expressing extended-spectrum beta-lactamase TEM-116 after 8 hrs; type: functional, organism-based
Escherichia coli [20] = experiment: Antimicrobial activity against Escherichia coli S3 overexpressing penicillinase TEM-1 after 8 hrs; type: functional, organism-based
Escherichia coli [21] = experiment: Antimicrobial activity against Escherichia coli S5 expressing extended-spectrum beta-lactamase TEM-116 after 12 hrs; type: functional, organism-based
Escherichia coli [22] = experiment: Antimicrobial activity against Escherichia coli S2 expressing penicillinase TEM-1 assessed as log reduction in bacterial count after 4 to 24 hrs in presence of calcium ions; type: functional
Homo sapiens [23] = experiment: Clearance in human at […], po after 5 hrs to 12 hrs; type: ADME, organism-based; design: route oral; conditions: in vivo
Escherichia coli [24] = experiment: Antimicrobial activity against Escherichia coli S1 expressing penicillinase TEM-1 assessed as log reduction in bacterial count after 4 to 24 hrs in presence of calcium ions; type: functional
Escherichia coli [25] = experiment: Antimicrobial activity against Escherichia coli S4 expressing inhibitor-resistant TEM-34 after 8 hrs; type: functional, organism-based
Escherichia coli [26] = experiment: Antimicrobial activity against Escherichia coli S1 expressing penicillinase TEM-1 assessed as log reduction in bacterial count upto 8 hrs; type: functional
Escherichia coli [27] = experiment: Antimicrobial activity against Escherichia coli S5 expressing extended-spectrum beta-lactamase TEM-116 after 24 hrs; type: functional, organism-based
Escherichia coli [28] = experiment: Antimicrobial activity against Escherichia coli S7 expressing extended-spectrum beta-lactamase SHV-12 and penicillinase TEM-1 after 12 hrs; type: functional, organism-based
Escherichia coli [29] = experiment: Antimicrobial activity against Escherichia coli S2 expressing penicillinase TEM-1after 12 hrs; type: functional, organism-based
Escherichia coli [30] = experiment: Antimicrobial activity against Escherichia coli S6 expressing extended-spectrum beta-lactamase TEM-116 and SHV-12 after 8 hrs; type: functional, organism-based
Homo sapiens [31] = experiment: Clearance in human at […], po after 3 hrs; type: ADME, organism-based; design: route oral; conditions: in vivo
Escherichia coli [32] = experiment: Antimicrobial activity against Escherichia coli S5 expressing extended-spectrum beta-lactamase TEM-116 assessed as log reduction in bacterial count from 3 to 24 hrs; type: functional
Escherichia coli [33] = experiment: Antimicrobial activity against Escherichia coli S4 expressing inhibitor-resistant TEM-34 after 12 hrs; type: functional, organism-based
Escherichia coli [34] = experiment: Antimicrobial activity against Escherichia coli S2 expressing penicillinase TEM-1 assessed as log reduction in bacterial count after 4 to 24 hrs in presence of magnesium ions; type: functional
Escherichia coli [35] = experiment: Antimicrobial activity against Escherichia coli S2 expressing penicillinase TEM-1 after 8 hrs; type: functional, organism-based
Escherichia coli [36] = experiment: Antimicrobial activity against Escherichia coli; type: functional
Escherichia coli [37] = experiment: Antimicrobial activity against Escherichia coli S2 expressing penicillinase TEM-1after 24 hrs; type: functional, organism-based
Homo sapiens [38] = experiment: Clearance in human at […], po after 3 hrs to 5 hrs; type: ADME, organism-based; design: route oral; conditions: in vivo
Escherichia coli [39] = experiment: Antimicrobial activity against Escherichia coli S7 expressing extended-spectrum beta-lactamase SHV-12 and penicillinase TEM-1 after 8 hrs; type: functional, organism-based
Escherichia coli [40] = experiment: Antimicrobial activity against Escherichia coli S4 expressing inhibitor-resistant TEM-34 after 24 hrs; type: functional, organism-based
Escherichia coli [41] = experiment: Antimicrobial activity against Escherichia coli S6 expressing extended-spectrum beta-lactamase TEM-116 and SHV-12 after 12 hrs; type: functional, organism-based
Escherichia coli [42] = experiment: Antimicrobial activity against Escherichia coli S2 expressing penicillinase TEM-1 assessed as log reduction in bacterial count upto 8 hrs; type: functional
Escherichia coli [43] = experiment: Antimicrobial activity against Escherichia coli S3 overexpressing penicillinase TEM-1after 12 hrs; type: functional, organism-based
Escherichia coli [44] = experiment: Antimicrobial activity against Escherichia coli S3 overexpressing penicillinase TEM-1 after 24 hrs; type: functional, organism-based
Escherichia coli [45] = experiment: Antimicrobial activity against Escherichia coli S7 expressing extended-spectrum beta-lactamase SHV-12 and penicillinase TEM-1 after 24 hrs; type: functional, organism-based
Escherichia coli [46] = experiment: Antimicrobial activity against Escherichia coli S4 expressing inhibitor-resistant TEM-34 assessed as log reduction in bacterial count upto 8 hrs; type: functional
Escherichia coli [47] = experiment: Antimicrobial activity against Escherichia coli S1 expressing penicillinase TEM-1 after 12 hrs; type: functional, organism-based
Homo sapiens [48] = experiment: Drug level in human urine at […], po after 8 to 12 hrs; type: ADME, organism-based; design: route oral; conditions: in vivo
Escherichia coli [49] = experiment: Antimicrobial activity against Escherichia coli S1 expressing penicillinase TEM-1 assessed as log reduction in bacterial count after 4 to 24 hrs in presence of magnesium ions; type: functional
Escherichia coli [50] = experiment: Antimicrobial activity against Escherichia coli S1 expressing penicillinase TEM-1 after 24 hrs; type: functional, organism-based
Escherichia coli [51] = experiment: Antimicrobial activity against Escherichia coli S6 expressing extended-spectrum beta-lactamase TEM-116 and SHV-12assessed as log reduction in bacterial count upto 8 hrs; type: functional

CC1(C)S[C@@H]2[C@H](NC(=O)[C@H](N)c3ccc(O)cc3)C(=O)N2[C@H]1C(=O)O [AMOXICILLIN]
MIC (Escherichia coli [1]): 4 µg/mL
MIC (Escherichia coli [2]): 2 µg/mL
MIC (Escherichia coli [3]): 16 µg/mL
MIC (Escherichia coli [4]): 4 µg/mL (≈ 10.9 µM)
MIC (Escherichia coli [5]): 8 µg/mL
MIC (Escherichia coli [6]): 32 µg/mL (≈ 87.6 µM)
MIC (Escherichia coli [7]): 16 µg/mL (≈ 43.8 µM)
MIC (Escherichia coli [8]): 32 µg/mL (≈ 87.6 µM)
MIC (Escherichia coli [9]): 4 µg/mL
MIC (Escherichia coli [10]): 8 µg/mL (≈ 21.9 µM)
MIC (Escherichia coli [11]): 4 µg/mL (≈ 10.9 µM)
MIC (Escherichia coli [12]): 2 µg/mL
MIC (Escherichia coli [13]): 16 µg/mL
MIC (Escherichia coli [14]): 8 µg/mL (≈ 21.9 µM)

CO/N=C(\C(=O)N[C@@H]1C(=O)N2C(C(=O)OCOC(=O)C(C)(C)C)=C(/C=C\c3scnc3C)CS[C@H]12)c1csc(N)n1 [CEFDITOREN PIVOXIL]
FC (Escherichia coli [15]): >=5
FC (Escherichia coli [16]): >=7
Activity (Escherichia coli [17]): Active
Activity (Escherichia coli [18]): inactive
Activity (Escherichia coli [19]): Active
Activity (Escherichia coli [20]): Active
Activity (Escherichia coli [21]): inactive
MIC (Escherichia coli [4]): 0.5 µg/mL (≈ 0.805 µM)
FC (Escherichia coli [22]): >4
MIC (Escherichia coli [6]): 2 µg/mL (≈ 3.22 µM)
CL (Homo sapiens [23]): 3.04 mL/min
MIC (Escherichia coli [7]): 16 µg/mL (≈ 25.8 µM)
FC (Escherichia coli [24]): >4
MIC (Escherichia coli [8]): 1 µg/mL (≈ 1.61 µM)
Activity (Escherichia coli [25]): Active
FC (Escherichia coli [26]): >=3
Activity (Escherichia coli [27]): inactive
Activity (Escherichia coli [28]): inactive
Activity (Escherichia coli [29]): Active
Activity (Escherichia coli [30]): inactive
CL (Homo sapiens [31]): 0.86 mL/min
FC (Escherichia coli [32]): >=3
Activity (Escherichia coli [33]): Active
FC (Escherichia coli [34]): >4
Activity (Escherichia coli [35]): Active
MIC90 (Escherichia coli [36]): 0.5 µg/mL (≈ 0.805 µM)
Activity (Escherichia coli [37]): Active
CL (Homo sapiens [38]): 2.88 mL/min
MIC (Escherichia coli [10]): 8 µg/mL (≈ 12.9 µM)
Activity (Escherichia coli [39]): inactive
Activity (Escherichia coli [40]): Active
Activity (Escherichia coli [41]): inactive
MIC (Escherichia coli [11]): 1 µg/mL (≈ 1.61 µM)
FC (Escherichia coli [42]): >=4
Activity (Escherichia coli [43]): Active
Activity (Escherichia coli [44]): Active
Activity (Escherichia coli [45]): inactive
FC (Escherichia coli [46]): >=6
Activity (Escherichia coli [47]): Active
Drug uptake (Homo sapiens [48]): 12.7 µg/mL
FC (Escherichia coli [49]): >4
Activity (Escherichia coli [50]): Active
FC (Escherichia coli [51]): >=8
MIC (Escherichia coli [14]): 0.25 µg/mL (≈ 0.403 µM)

CO/N=C(\C(=O)N[C@@H]1C(=O)N2C(C(=O)O)=C(COC(N)=O)CS[C@H]12)c1ccco1 [CEFUROXIME]
MIC (Escherichia coli [4]): 32 µg/mL (≈ 75.4 µM)
MIC (Escherichia coli [6]): 4 µg/mL (≈ 9.43 µM)
MIC (Escherichia coli [7]): 32 µg/mL (≈ 75.4 µM)
MIC (Escherichia coli [8]): 8 µg/mL (≈ 18.9 µM)
MIC (Escherichia coli [10]): > 128 µg/mL
MIC (Escherichia coli [11]): 4 µg/mL (≈ 9.43 µM)
MIC (Escherichia coli [14]): 4 µg/mL (≈ 9.43 µM)

O=C(O)c1cn(C2CC2)c2cc(N3CCNCC3)c(F)cc2c1=O [CIPROFLOXACIN]
MIC (Escherichia coli [7]): > 32 µg/mL
MIC (Escherichia coli [11]): > 32 µg/mL
MIC (Escherichia coli [14]): 0.007 µg/mL (≈ 0.0211 µM)
